Experimental data: patent US20230167058A1, “GPX4 COMPOUNDS AND COMPOSITIONS AND METHODS OF TREATMENT USING SAME” (THE TRUSTEES OF COLUMBIA UNIVERSITY IN THE CITY OF NEW YORK, priority 2020, published 2023)
Read-outs that look alike come from different tables or passages of the source.

Experiments:
[1] = system: GPX4 protein level in HT-1080 cells; experiment: Western blot GPX4 degradation study in HT-1080; format: cell-based, human; settings: 1 μM RSL3, 1 μM ML162, 10 μM FIN56, 10 h, with 100 μM α-tocopherol
Procedure: For the GPX4 degradation study, HT-1080 cells were seeded at 800,000 per well in a 60-mm plate and allowed to adhere overnight. Cells were then treated with 100 μM α-tocopherol and either 1 μM RSL3, 1 μM ML162, 10 μM IKE, 10 μM FIN56, or vehicle for 10 h. Cells were harvested with trypsin (Invitrogen, 25200-114), pelleted, and lysed with RIPA buffer.
For both experiments, cell lysates were blotted and imaged as previously described (Yang et al. 2014). Antibodies used were GPX4 (Abcam, ab125066, 1:250 dilution), actin (Cell Signaling, D18C11, 1:3,000 dilution), and GAPDH (Santa Cruz, sc-47724, 1:10,000 dilution). Results were quantified using a LI-COR Odyssey CLx IR scanner and GraphPad Prism 7.

GPX4 [2] = target: T1, GPX4 (Homo sapiens, UniProt P36969, U73C); experiment: Surface plasmon resonance (SPR); format: binding; settings: Table 1
T1 sequence (P36969 33-197 U73C): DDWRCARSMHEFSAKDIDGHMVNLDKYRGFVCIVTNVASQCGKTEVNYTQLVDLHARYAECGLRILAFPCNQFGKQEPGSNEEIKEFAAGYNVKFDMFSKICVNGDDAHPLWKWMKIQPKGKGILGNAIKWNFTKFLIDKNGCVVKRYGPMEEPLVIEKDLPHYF
From the text: (§1) These x-ray structures enabled further optimization of current inhibitors and the design of novel inhibitors targeting various binding sites on GPX4. Therefore, we applied a strategy of computer-facilitated design, based on MD simulation (Desmond) and Glide docking (Schrödinger Suite), and experimental high-throughput screening of a lead-optimized compound library of 10,000 compounds (FIGS. 6A-6E). All candidates were first evaluated by thermal denaturation assay and microscale thermophoresis (MST) to validate binding to GPX4 (Table 1). Surface plasmon resonance (SPR) and isothermal titration calorimetry (ITC) were then applied to precisely measure their binding kinetics and affinities, while ^1H-^15N heteronuclear single-quantum coherence (HSQC) NMR spectroscopy informed us of binding sites. We optimized two GPX4-specific activity assays to examine enzymatic inhibitory effects of hit compounds—LC-MS-based substrate/product monitoring and an NADPH-coupled assay. […] Some L880 analogues were also synthesized and tested (Table 2).

GPX4^U46C [3] = target: T2, GPX4^U46C (Homo sapiens, UniProt P36969, U73C); experiment: 1H,15N-HSQC-NMR of 15N-labeled GPX4^U46C; format: binding; settings: Table 1
T2 construct: His6 (N, cleaved yes); made in house; host or cells: E. coli BL21-Gold (DE3), M9 minimal medium with 15NH4Cl
T2 sequence (P36969 33-197 U73C): T1 sequence (P36969 33-197 U73C)
Procedure: Uniformly ^15N-labeled GPX4^U46C protein with N-terminal His6 tag was prepared. The GPX4^U46C construct was expressed in E. coli BL21-Gold (DE3) cells (Stratagene) growing at 37° C. in M9 minimal medium supplemented with […] ampicillin, 2 mM MgSO4, […] CaCl2, 1× trace metals, 1×RPMI 1640 vitamin stock (Sigma-Aldrich, #R7256), […] biotin, […] thiamine hydrochloride, 4 g/L glucose, and 3 g/L ^15NH4Cl as the sole nitrogen source. The following induction, lysis, and protein purification was the same as for the non-isotope-labeled His-tagged GPX4^U46C described above, except the N-terminal His6 tag was removed by adding 5 U/mg thrombin before FPLC purification. The thrombin reaction was after a buffer exchange to remove imidazole, which otherwise would inhibit thrombin, and was allowed to proceed overnight at 4° C.
Then the protein solution was concentrated to 50 μM before testing. For HSQC of GPX4 with other inhibitors, 50 μM ^15N-labeled GPX4 was preincubated with 800 μM inhibitor to be tested for […] at room temperature in buffer (100 mM MES, 5 mM TCEP, pH 6.5). D20 (10%) was then added for the field frequency lock. The ^1H-^15N HSQC spectra were collected on Bruker Avance III 500 Ascend (500 MHz) spectrometers (Columbia University) at 298K. The ^1H carrier frequency was positioned at the water resonance. The ^15N carrier frequency was positioned at 115 ppm. The spectral width in the ^1H dimension was 7,500 Hz and the width in the ^15N dimension was 1,824.6 Hz. Suppression of water signal was accomplished using the WATERGATE sequence. Heteronuclear decoupling was accomplished using GARP decoupling scheme.

GPX4 [4] = target: T3, GPX4 (Homo sapiens, UniProt P36969); experiment: GPX4-specific enzymatic activity assay (LC-MS substrate/product, NADPH-coupled); format: biochemical
T3 sequence (P36969 1-170 isoform P36969-2): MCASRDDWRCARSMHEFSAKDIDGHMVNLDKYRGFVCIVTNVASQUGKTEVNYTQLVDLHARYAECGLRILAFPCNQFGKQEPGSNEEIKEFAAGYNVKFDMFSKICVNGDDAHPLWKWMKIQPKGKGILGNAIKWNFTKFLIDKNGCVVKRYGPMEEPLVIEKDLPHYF
From the text: as §1

GPX4^U46C [5] = target: T2, GPX4^U46C; experiment: Thermal shift assay (screen of LOC library); format: binding; settings: Table 1
Procedure: To fully utilize the versatility shown by the […] site to accommodate structurally diverse compounds, we applied thermal shift assay to screen 9,719 compounds in the Lead-Optimized-Compound (LOC) library for in vitro binders of GPX4^U46C, which would shift the melting temperature of GPX4^U46C (|ΔTm|>2° C., FIG. 12D) (Kaplan et al. 2015).
Since the binding of small molecules may alter the thermostability of protein, we applied thermal shift assay to screen the LOC library, which determined binding of ligand from the change of the unfolding transition temperature (ΔTm) obtained in the presence of ligands relative to that obtained in the absence of ligands (Kaplan et al. 2015; Lo et al. 2004). For higher throughput purpose, we adapted the assay on 384-well PCR plate. With the assistance of Biomek Automated Liquid Handler (Beckman), 2 μl 10 mM stock solution (in 100% DMSO) of the each compound was transferred from 384-well library plates to 38 μl FPLC buffer (100 mM Tris pH 8.0, 300 mM NaCl, 3 mM TCEP) and mixed in each well of a 384-well mother plate. The compound solution was then dispensed, 12 μl per well, into three 384-well PCR plates. GPX4^U46C protein and Sypro orange were manually added to the plate, with the final concentrations of 5 μM and 5×, respectively, to make a volume of 20 μl per well right before thermal shift analysis of the specific plate. The thermal shift assay was performed on the ViiA 7 Real-Time PCR system (Thermo Fisher) with the thermal protocol: 25° for 15 s, Increase temp to 99° at a rate of 0.05°/sec, 99° for 15 sec. The fluorescence was recorded and analyzed by Protein Thermal Shift™ software. The mean |ΔTm| value for the biological triplicates were calculated and used for hit identification.

GPX4 [6] = target: T1, GPX4; experiment: Microscale thermophoresis (MST) binding to GPX4
From the text: as §1, with “Therefore,” for “These x-ray structures enabled further optimization of current inhibitors and the design of novel inhibitors targeting various binding sites on GPX4. Therefore,”

GPX4^U46C [7] = target: T2, GPX4^U46C; experiment: Co-crystal structure of GPX4^U46C with inhibitor; format: binding
Procedure: GPX4^U46C was pre-incubated with the covalent inhibitors before crystallization using the following specifically optimized condition.
RSL3 and ML162 condition: 50 μM GPX4^U46C incubated with 150 μM RSL3 or ML162 in the reaction buffer (20 mM Tris pH 9.0, 100 mM NaCl, 3 mM TCEP, 1.5% DMSO) at 15° C. for 1 hour before transferring to 4° C. overnight. CDS9 condition: 25 μM GPX4^U46C incubated with 2 mM CDS9 in the reaction buffer (100 mM Tris pH 9.0, 300 mM NaCl, 1 mM TCEP, 2% DMSO) at 37° C. for 2 hours before transferring to 4° C. overnight. TMT10 condition: 25 μM GPX4^U46C incubated with 2 mM TMT10 in the reaction buffer (100 mM Tris pH 9.0, 300 mM NaCl, 2% glycerol, 2% DMSO) at 37° C. for 4 hours before transferring to 4° C. overnight. MAC-5576 condition: 50 μM GPX4^U46C protein was incubated with 500 μM MAC-5576 in the reaction buffer (100 mM Tris pH 9.0, 300 mM NaCl, and 3 mM TCEP, 5% DMSO) at RT for 1 hour before transferring to 4° C. overnight.
After confirmation of covalent binding using intact protein MALDI MS analysis, the protein-inhibitor complex were exchanged into crystallization buffer (10 mM Tris pH 8.0, 5 mM TCEP) and concentrated to 5 mg/ml.

GPX4^U46C [8] = target: T2, GPX4^U46C; experiment: Intact protein MALDI MS analysis, GPX4^U46C; format: binding; settings: protein preincubated with excess inhibitor
Procedure: GPX4^U46C or GPX4^AllCys(−)-A46C protein was pre-incubated with DMSO control or the inhibitor to be tested prior to MALDI MS analysis: 50 μM GPX4 protein was incubated with 500 μM inhibitors in FPLC buffer (100 mM Tris pH 8.0, 300 mM NaCl, and 3 mM TCEP) with 5% DMSO at RT for 1 hour before transferring to 4° C. overnight.
1 μl of the ligand-free protein (pre-incubated with DMSO) or protein-inhibitor complex (pre-incubated with the inhibitor to be tested) was mixed with 9 μl of 10 mg/ml sinapinic acid in the matrix solution (70:30 water/acetonitrile, with 0.1% TFA). 1.0 μl of the final mix was deposited onto the target carrier and allowed to air dry. MALDI spectrum was recorded using Bruker ultrafleXtreme MALDI-TOF instrument. The range of m/z detection and suppression was adjusted to accommodate the molecular weight of target protein. 2000 Hz and 50% intensity was applied for the laser setting. For each sample, five cumulative spectra were collected and the sum was recorded for analysis. All MALDI spectra of protein-inhibitor complex were compared with ligand-free protein to determine the mass shift. Mass shifts were aligned with the mass of potential staying group of each inhibitor to conclude covalent binding.

Compound	degradation of endogenous GPX4 [1]	SPR (GPX4 [2])	Binding site (GPX4^U46C [3])	HSQC assay (GPX4^U46C [3])	GPX4 enzymatic assay (GPX4 [4])	Thermal shift (GPX4^U46C [5])	Kd (GPX4 [6]) [µM]	MST (GPX4 [6]; Table 1)	Kd (GPX4 [6]; Table 1, read-out: MST Kd) [µM]	binding site in co-crystal structure (GPX4^U46C [7])	covalent binding to GPX4^U46C by intact protein MALDI MS (GPX4^U46C [8])
O=S(=O)(NC1CCCCC1)c1ccc2c(c1)C(=NO)c1cc(S(=O)(=O)NC3CCCCC3)ccc1-2 [FIN56]	significantly promoted degradation of GPX4	–	–	–	–	–	–	–	–	–	–
CC(C)(C(=O)[O][Sn]([CH3])([CH3])[CH3])N1C(=O)c2ccccc2C1=O [LOC880]	–	positive	Allosteric Site 2	positive	positive	positive	6.7	positive	–	–	–
CN(C)c1ccc(/C=C2\SC(N3CCN(CCO)CC3)=NC2=O)cc1 [LOC957]	–	positive	Allosteric Site 2	positive	positive	positive	–	positive	6.8	–	–
CN(C)C(=O)c1ccc2c(c1)NC(=O)C1CCCN21 (stereo not drawn) [LOC4873]	–	positive	Allosteric Site 2	positive	positive	positive	–	positive	40	–	–
O=C(Oc1cncc(Cl)c1)c1cccs1 [MAC-5576]	–	–	–	–	–	–	–	–	–	bound to the cys66 allosteric site	able to covalently modify GPX4
